Laboratory results from the supplement of paper PMC10331698.
± gives the standard deviation of the averaged measurements.

What was measured:
Test in all cases: level (log10 ratio to DMSO vehicle control); higher = higher biomarker level / cell amount than vehicle control
[1] = compound: C=CC(=O)OCC(F)(F)C(F)(F)C(F)(F)COC(=O)C=C [1H,1H,5H,5H-Perfluoro-1,5-pentanediol diacrylate]; conditions: 6700 nM; in DMSO
Protocol: (§1)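 BioMAP Diversity Plus panel of 12 human primary cell co-culture systems (3C, 4H, LPS, SAg, BT, BF4T, BE3C, CASM3C, HDF3CGF, KF3CT, MyoF, Mphg). Compounds were added 1 h before stimulation and left for 24 h (MyoF 48 h; BT 72 h for soluble read-outs or 6 d for IgG). Biomarkers were read by ELISA, cytotoxicity by SRB, PBMC viability and proliferation by Alamar Blue. Each well value was divided by the mean of 8 DMSO control wells on the same plate and log10 transformed; duplicate blinded samples were tested at 4 concentrations.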

[2] = compound: FC(F)(F)C(F)(F)C(F)(F)C(F)(F)C(F)(F)C(F)(F)C(F)(F)I [1-Iodopentadecafluoroheptane]; conditions: in DMSO
Protocol: as §1

[3] = compound: FC(F)(F)C(F)(F)CNCC(F)(F)C(F)(F)F [Bis(1H,1H-perfluoropropyl)amine]; conditions: in DMSO
Protocol: as §1

[4] = compound: COC(=O)C(F)(F)C(F)(F)OC(F)(C(F)(F)F)C(F)(F)OC(F)=C(F)F [Methyl perfluoro(3-(1-ethenyloxypropan-2-yloxy)propanoate)]; conditions: in DMSO
Protocol: as §1

[5] = compound: NC(=O)C(F)(F)C(F)(F)C(F)(F)C(F)F; conditions: in DMSO
Protocol: as §1

Heptafluorobutyl iodide = compound: FC(F)(F)C(F)(F)C(F)(F)CI [Heptafluorobutyl iodide]; conditions: in DMSO
Protocol: as §1

Test System	level (log10) [1]	level (log10) ([2]; 6700 nM)	level (log10) ([2]; 20000 nM)	level (log10) ([3]; 6700 nM)	level (log10) ([3]; 20000 nM)	level (log10) ([3]; 60000 nM)	level (log10) ([4]; 6700 nM)	level (log10) ([4]; 20000 nM)	level (log10) ([5]; 6700 nM)	level (log10) ([5]; 20000 nM)	level (log10) ([5]; 60000 nM)	level (log10) (Heptafluorobutyl iodide; 6700 nM)	level (log10) (Heptafluorobutyl iodide; 20000 nM)	level (log10) (Heptafluorobutyl iodide; 60000 nM)
BE3C:PAI-I	0.0535 ± 0.0064	-0.0185 ± 0.047	-0.0245 ± 0.037	-0.0395 ± 0.00071	-0.022 ± 0.0057	-0.0075 ± 0.023	0.0185 ± 0.019	0.037 ± 0.0071	0.0065 ± 0.0064	-0.0055 ± 0.0035	0 ± 0.0028	-0.018 ± 0.017	-0.027 ± 0.025	-0.0085 ± 0.016
BE3C:SRB	-0.0035 ± 0.0021	0.0095 ± 0.00071	0.0085 ± 0.0035	-0.002 ± 0.0057	-0.004	0.003 ± 0.0071	-0.005 ± 0.0042	0.001 ± 0.0057	-0.0035 ± 0.0035	0.0005 ± 0.005	-0.0055 ± 0.0021	0.002 ± 0.0028	-0.003 ± 0.0071	0.0035 ± 0.00071
BE3C:tPA	-0.0565 ± 0.033	-0.006 ± 0.0042	0.0075 ± 0.022	-0.0285 ± 0.0021	-0.0685 ± 0.011	-0.0225 ± 0.036	-0.114 ± 0.033	-0.142 ± 0.018	-0.008 ± 0.0028	-0.0275 ± 0.016	-0.0235 ± 0.0021	-0.0095 ± 0.029	-0.024 ± 0.011	0.015 ± 0.044
BE3C:uPA	-0.015 ± 0.0028	-0.0135 ± 0.0035	-0.009 ± 0.0099	-0.0155 ± 0.0064	-0.0185 ± 0.0092	-0.003 ± 0.013	0.0005 ± 0.0035	0.0305 ± 0.012	-0.01 ± 0.0057	-0.013 ± 0.0085	-0.0045 ± 0.013	-0.0015 ± 0.00071	-0.0105 ± 0.00071	-0.0025 ± 0.0035
CASM3C:CCL2/MCP-1	0 ± 0.0085	-0.01 ± 0.0042	0.005 ± 0.018	-0.0065 ± 0.013	-0.0205 ± 0.015	-0.0055 ± 0.04	-0.001 ± 0.0014	0.008 ± 0.016	-0.0055 ± 0.013	-0.011 ± 0.018	0.015 ± 0.045	-0.0055 ± 0.0021	-0.021 ± 0.011	0.018 ± 0.045
CASM3C:CD87/uPAR	-0.0095 ± 0.022	-0.019 ± 0.031	-0.0195 ± 0.018	-0.0255 ± 0.012	-0.0155 ± 0.019	-0.012 ± 0.035	-0.015 ± 0.027	-0.0165 ± 0.026	-0.0115 ± 0.015	-0.0035 ± 0.0078	-0.019 ± 0.017	-0.017 ± 0.0042	0.0205 ± 0.029	-0.0015 ± 0.00071
CASM3C:CD106/VCAM-1	-0.119 ± 0.011	-0.0125 ± 0.005	-0.019 ± 0.034	-0.06 ± 0.024	-0.0545 ± 0.026	-0.0105 ± 0.053	-0.024 ± 0.011	-0.04 ± 0.021	-0.009 ± 0.0057	-0.003 ± 0.014	-0.008 ± 0.014	-0.023 ± 0.013	-0.0245 ± 0.019	-0.028 ± 0.0042
CASM3C:CD141/Thrombomodulin	0.081 ± 0.0042	-0.0595 ± 0.021	-0.0445 ± 0.021	0.019 ± 0.011	0.007 ± 0.0099	0.001 ± 0.02	-0.0085 ± 0.005	0.023 ± 0.018	-0.008 ± 0.0042	0.0085 ± 0.025	0.0085 ± 0.0092	-0.025 ± 0.0099	-0.039 ± 0.0085	-0.0125 ± 0.013
CASM3C:CD142/Tissue Factor	-0.0325 ± 0.015	-0.0185 ± 0.016	-0.043 ± 0.024	-0.0175 ± 0.0021	-0.0085 ± 0.054	-0.0095 ± 0.046	0.0075 ± 0.022	0.0285 ± 0.012	-0.01 ± 0.017	-0.001 ± 0.011	-0.0075 ± 0.00071	0.0065 ± 0.0035	-0.0175 ± 0.0035	0.0095 ± 0.056
CASM3C:CXCL8/IL-8	-0.0125 ± 0.00071	-0.0165 ± 0.016	0.001 ± 0.017	-0.0065 ± 0.0092	-0.005 ± 0.014	0.003 ± 0.027	-0.004 ± 0.0085	0.013 ± 0.0085	-0.006	-0.006	0.004 ± 0.031	0.0015 ± 0.012	-0.014 ± 0.014	-0.001 ± 0.014
CASM3C:CXCL9/MIG	-0.229 ± 0.011	-0.0165 ± 0.025	0.018 ± 0.018	0.0175 ± 0.025	0.006 ± 0.0014	-0.0065 ± 0.069	-0.0025 ± 0.0078	-0.007 ± 0.013	-0.0075 ± 0.021	-0.0055 ± 0.0035	0.0005 ± 0.0078	-0.0295 ± 0.0021	-0.0225 ± 0.0021	-0.002 ± 0.038
CASM3C:HLA-DR	-0.0345 ± 0.018	-0.0255 ± 0.023	0.008 ± 0.023	-0.013 ± 0.0057	-0.0105 ± 0.0021	0.015 ± 0.058	0.0145 ± 0.015	0.0155 ± 0.022	-0.0125 ± 0.042	-0.0075 ± 0.016	-0.008 ± 0.0014	-0.016 ± 0.024	-0.022 ± 0.0014	-0.008 ± 0.0028
CASM3C:IL-6	-0.0735 ± 0.00071	-0.0425 ± 0.026	-0.0035 ± 0.053	-0.0335 ± 0.047	-0.035 ± 0.02	0.0065 ± 0.023	-0.018 ± 0.02	-0.0065 ± 0.025	-0.0315 ± 0.0064	-0.0165 ± 0.012	0.017 ± 0.05	-0.01 ± 0.011	-0.016 ± 0.0014	0.009 ± 0.031
CASM3C:LDLR	-0.004 ± 0.0014	-0.002 ± 0.013	-0.014	-0.005 ± 0.0099	-0.0065 ± 0.0021	-0.001 ± 0.025	-0.0035 ± 0.005	0.0085 ± 0.033	-0.008	-0.006 ± 0.024	0.031 ± 0.042	-0.0015 ± 0.00071	0.0025 ± 0.005	0.0145 ± 0.015
CASM3C:M-CSF	-0.056 ± 0.021	-0.0285 ± 0.019	0.0225 ± 0.052	0.006 ± 0.016	-0.005 ± 0.016	0.0115 ± 0.028	-0.0075 ± 0.036	0.01 ± 0.025	-0.0485 ± 0.021	-0.0535 ± 0.046	0.019 ± 0.082	-0.001 ± 0.0042	-0.0165 ± 0.0021	0.0195 ± 0.037
CASM3C:PAI-I	0.002 ± 0.0042	-0.013 ± 0.011	0.0075 ± 0.011	-0.0075 ± 0.0078	-0.009 ± 0.0042	0.005 ± 0.025	-0.0015 ± 0.0035	-0.0005 ± 0.012	-0.005 ± 0.021	-0.003 ± 0.0085	-0.008 ± 0.0099	-0.009 ± 0.0085	-0.0035 ± 0.005	-0.011 ± 0.0057
CASM3C:Proliferation	-0.289 ± 0.086	-0.003 ± 0.027	-0.045 ± 0.0042	-0.115 ± 0.024	0.0135 ± 0.037	-0.0005 ± 0.076	-0.012 ± 0.065	0.036 ± 0.05	0.002 ± 0.071	-0.0145 ± 0.023	0.014 ± 0.025	-0.008 ± 0.0085	0.0235 ± 0.018	0.008 ± 0.024
CASM3C:SRB	-0.0025 ± 0.0021	-0.0025 ± 0.0092	0.007	0.0065 ± 0.005	-0.001 ± 0.0028	0.008	0.0015 ± 0.0021	0.006 ± 0.0014	0.0025 ± 0.00071	-0.0115 ± 0.005	-0.0085 ± 0.016	-0.0085 ± 0.0064	0.002 ± 0.0042	0.0055 ± 0.0078
CASM3C:Serum Amyloid A	-0.038 ± 0.0057	-0.035	0.008 ± 0.024	0.0025 ± 0.019	-0.007 ± 0.0057	0.0065 ± 0.032	0.007 ± 0.011	0.009 ± 0.023	-0.054 ± 0.071	-0.0535 ± 0.026	-0.003 ± 0.024	-0.027 ± 0.0014	0.0075 ± 0.0021	0.0035 ± 0.012
HDF3CGF:CCL2/MCP-1	-1.14 ± 0.03	-0.0205 ± 0.025	-0.0335 ± 0.0035	-0.032 ± 0.023	-0.021 ± 0.011	0.014 ± 0.031	0.023 ± 0.0042	0.0305 ± 0.029	-0.017 ± 0.054	-0.004 ± 0.04	0.0095 ± 0.028	-0.01 ± 0.0057	-0.013 ± 0.0057	-0.0025 ± 0.025
HDF3CGF:CD54/ICAM-1	-0.9415 ± 0.0078	-0.0025 ± 0.0078	-0.0075 ± 0.0078	0.026 ± 0.018	0.033 ± 0.0085	0.0405 ± 0.018	-0.0155 ± 0.0092	-0.029 ± 0.025	-0.0045 ± 0.0064	0.0045 ± 0.0035	0.001 ± 0.0071	-0.004 ± 0.0028	0.0005 ± 0.005	0.002 ± 0.0028
